# According to PubChem BioAssay (NCI):
#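 Five compound concentrations were applied to cells in 96-well plates for 48 hours; endpoints were derived by simple linear interpolation of the resulting dose-response curve. At the GI50, growth is halved. TGI denotes the concentration required for complete inhibition of growth.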
# Assays:
# Assay in all cases: DTP human tumour cell line panel, 48 h
# A498 renal = system: A498 renal
# NCI-H460 lung = system: NCI-H460 lung
# SK-MEL-28 melanoma = system: SK-MEL-28 melanoma
# NCI-H522 lung = system: NCI-H522 lung
# DMS 273 small cell lung = system: DMS 273 small cell lung
# COLO 205 colon = system: COLO 205 colon
# ACHN renal = system: ACHN renal
# SR leukemia = system: SR leukemia
# HCC-2998 colon = system: HCC-2998 colon
# SNB-78 CNS = system: SNB-78 CNS
SMILES,TGI (A498 renal) [µM],TGI (NCI-H460 lung) [µM],TGI (SK-MEL-28 melanoma) [µM],TGI (NCI-H522 lung) [µM],TGI (DMS 273 small cell lung) [µM],TGI (COLO 205 colon) [µM],TGI (ACHN renal) [µM],TGI (SR leukemia) [µM],TGI (HCC-2998 colon) [µM],TGI (SNB-78 CNS) [µM],GI50 (NCI-H460 lung) [µM],GI50 (COLO 205 colon) [µM],GI50 (ACHN renal) [µM],GI50 (SR leukemia) [µM],GI50 (HCC-2998 colon) [µM],GI50 (SNB-78 CNS) [µM],GI50 (A498 renal) [µM],GI50 (SK-MEL-28 melanoma) [µM],GI50 (NCI-H522 lung) [µM],GI50 (DMS 273 small cell lung) [µM]
CCOC(=O)C1=C(NNC(=O)Cc2ccccc2)CSC1=Nc1ccccc1,> 100,> 100,> 100,> 100,> 100,> 100,> 100,> 100,> 100,> 100,,,,,,,,,,
O=c1c2cc(Br)ccc2nc(-c2ccccc2Cl)n1NCC1(O)OCC(O)C(O)C1O (stereo unspecified),> 100,> 100,> 100,> 100,> 100,> 100,> 100,> 100,,> 100,,,,,,,,,,
N#C/C(=C1\NN=C(N)C(c2ccc(Cl)cc2)=C1O)c1ccc(Cl)cc1,> 100,> 100,> 100,> 100,> 100,> 100,> 100,> 100,> 100,> 100,,,,,,,,,,
O=C(O)CCSCCCN1C(=O)c2ccccc2C1=O,,,> 100,,,> 100,> 100,> 100,> 100,> 100,,,,,,,,,,
[C-]#[O+].[C-]#[O+].[C-]#[O+].[C-]#[O+].[Ir].[Ir].[O-]c1ccc2ccccc2c1C=Nc1ccc(N=Cc2c([O-])ccc3ccccc23)cc1,,> 100,,,,> 100,> 100,> 100,> 100,> 100,> 100,> 100,> 100,> 100,> 100,> 100,,,,
C=C(C)C(=O)OC1CC2=CC(CC3(C)OC3C3OC(=O)C(=C)C13)OC2=O (stereo unspecified),30.2,35.1,26.2,4.18,28.3,7.08,16.7,15.7,34.8,33.3,,,,,,,,,,
COc1ccc(C2=NN(C(=O)COc3ccc(Cl)cc3)C(O)(c3ccc(Cl)cc3)C2)cc1 (stereo unspecified),,> 100,> 100,> 100,> 100,> 100,> 100,,> 100,> 100,,,,,,,,,,
CCc1ccccc1N1CCN(C(=O)c2cc(OC)c(OC)c(OC)c2)CC1,0.985,2.8,> 70.2,0.029,> 100,0.108,66.4,> 55.1,2.09,> 100,,,,,,,,,,
CS(=O)(=O)OCCn1cnc2nc(NC(=O)c3ccccc3)[nH]c(=O)c21,> 100,> 100,> 100,> 100,> 100,> 100,> 100,> 100,,> 100,,,,,,,,,,
CC(=O)Nc1ccc(/C=N\N2C(=O)c3ccccc3C2=O)cc1,> 100,> 100,> 100,,> 100,,> 100,> 100,> 100,> 100,,,,,,,,,,
O=C(/C=C/c1ccc(Cl)c(Cl)c1)c1ccc(F)cc1,> 100,54.9,39.5,18.5,26.9,52,31.6,,32.8,41.1,,,,,,,,,,
Nc1ncnc2c1ncn2CC(O)C(=O)O (stereo unspecified),> 100,> 100,> 100,> 100,> 100,> 100,> 100,> 100,> 100,,,,,,,,,,,
CC1CC(c2cccc3c2OCO3)=Nc2ccccc2S1 (stereo unspecified),> 100,> 100,> 100,> 100,> 100,> 100,> 100,,> 100,> 100,,,,,,,,,,
NC1=C(Br)C(=O)c2ncccc2C1=O,7.99,1.16,1.25,0.766,1.44,3.18,1.62,1.84,2.61,2.48,,,,,,,,,,
C/C([O-])=C1\Cc2ccccc2C1=O.C/C([O-])=C1\Cc2ccccc2C1=O.CC[O-].CC[O-].[Ti+4],31.5,44.7,38.1,47.6,31.4,67.4,> 92.2,> 79.9,58.8,> 100,10.3,27.4,19.1,19.1,17.3,24,13.4,17.7,14.2,8.38
CC1=C(C(=O)Nc2cccc(Cl)c2)C(c2ccc([N+](=O)[O-])cc2)C(C(=O)Nc2cccc(Cl)c2)=C(C)N1,> 100,50.4,> 100,89.9,,> 100,97.9,,48.2,> 100,,,,,,,,,,
CC(/C(=N/NC(=O)C(N)=O)c1c(Cl)ccc(Cl)c1O)C1(O)C(=O)Nc2ccccc21 (stereo unspecified),76.9,78.9,> 100,44.6,> 100,49.1,> 100,,> 100,> 100,,,,,,,,,,
C=C(C)[C@@H]1CC[C@]2(C(=O)NCCNCCNCCN)CC[C@]3(C)[C@H](CC[C@@H]4[C@@]5(C)CC[C@H](O)C(C)(C)[C@@H]5CC[C@]43C)[C@@H]12,64.7,32,30.6,25.4,,34.6,27.3,> 100,29.5,,14.7,15.9,12,6.76,14.1,,19.6,16,10.3,
OCC(O)C(OC1OC(CO)C(O)C(O)C1O)c1nn(-c2ccccc2)c2nc3cc(Cl)c(Cl)cc3cc12 (stereo unspecified),> 100,> 100,> 100,> 100,,,> 100,> 100,> 100,> 100,,,,,,,,,,
COCC1N=C(c2cc(OC)c(OC)c(OC)c2-c2cc3c(cc2C2OCCCO2)OCO3)O[C@H]1c1ccccc1 (stereo partly specified),> 100,> 100,> 100,> 100,> 100,,> 100,,> 100,,,,,,,,,,,
Cn1c(=O)c(Oc2ccc(F)cc2F)cc2cnc(NC(CO)CO)nc21,> 25,> 25,> 25,> 25,,> 25,> 25,> 25,> 25,,> 25,> 25,> 25,> 25,> 25,,> 25,> 25,> 25,
Cc1ccc(/C=C2/SC(Nc3nc(-c4nc(NC5=NC(=O)/C(=C\c6ccc(C)cc6)S5)sc4C)c(C)s3)=NC2=O)cc1,7.52,> 50,> 50,25.9,,> 50,> 29.6,> 50,9.92,,0.643,35.2,0.559,0.373,1.71,,1.4,35.3,0.857,
NC(=O)c1cc([N+](=O)[O-])c(Cl)c([N+](=O)[O-])c1,26.8,38.2,4.34,3.57,,3.5,3.37,> 100,7.46,,15.7,1.99,1.87,1.89,2.61,,13.8,2.05,1.94,
O=C1/C(=C/c2ccc([N+](=O)[O-])o2)Oc2ccc(Br)cc21,30.1,24.2,4.83,3.35,,7.32,3.77,5.52,27.5,,10.6,2.83,1.85,0.77,8.01,,15.9,2.19,1.88,
Fc1cccc2cc3ccc4cccc5ccc(c12)c3c45,> 100,,> 100,> 100,> 100,> 100,> 100,,> 100,,,,,,,,,,,
COc1ccc(C/C(C)=C(\c2ccc(OCCN3CCOCC3)cc2)c2ccc(OC(=O)Cc3ccccc3)cc2)cc1,0.971,1.53,1.06,1.08,,1.54,3.38,1.73,1.49,,0.713,0.614,0.99,0.648,0.668,,0.462,0.555,0.564,
CCCCCCCCC(=O)N(C)C1C2CN3CCC(O2)C13 (stereo unspecified),> 100,> 100,> 100,> 100,> 100,> 100,> 100,,> 100,> 100,,,,,,,,,,
Cc1ccc2c(c1C)-c1c(ccc(C)c1C)C(=O)C2=O,4.35,3.4,2.83,0.403,,4.62,3.91,0.56,18,,,,,,,,,,,
